Values joined by “and” are separate entries in the source; they are usually repeats but may differ in a detail not shown here. Identical values can stand only once. Toxic doses and inconclusive results are not listed. Starred links: 1 amine or outer side, 2 acyl side, 3 side chain; linkers in the order of their positions; H or OH if unused. Positions of bridges follow the written chain, without caps; N, C: chain ends. Non-standard residues stand in square brackets, D forms with d. Residues, ends and D or L forms follow the SMILES beside them. Chains are numbered I, II in the order given. Actinocin(1to9) = Cc1c2oc3c(C)ccc(C(=O)[*:2])c3nc-2c(C(=O)[*:1])c(N)c1=O; NMeV = CN[CH](C(=O)O)C(C)C; Aze = O=C(O)[CH]1CCN1; Sar = CNCC(=O)O
Tested on: BDF1 mice, P815 leukemia ip, survival T/C
Assay: NCI In Vivo Anticancer Drug Screen. Data for tumor model P815 Mast Cell Leukemia (Ascitic) (intraperitoneal) in B6D2F1 (BDF1) mice
Conditions: higher = longer survival
Protocol: The antitumor activity of compounds was measured in mice bearing transplantable tumors. Survival or tumor size were measured and the results are expressed as the measurement made in the treated group (T) divided by the measurement made in the vehicle treated control group (C). The tumor model used in this assay is P815 Mast Cell Leukemia (Ascitic) (intraperitoneal) in B6D2F1 (BDF1) mice

[1] = endpoint: survival time, mean or median, dose: 31.3 mg/kg/injection, schedule: Q01DX010 (ip), vehicle: saline
[2] = endpoint: survival time, mean or median, dose: 62.5 mg/kg/injection, schedule: Q01DX010 (ip), vehicle: saline
[3] = endpoint: survival time, mean or median, dose: 125.0 mg/kg/injection, schedule: Q01DX010 (ip), vehicle: saline
[4] = endpoint: survival time, mean or median, dose: 250.0 mg/kg/injection, schedule: Q01DX010 (ip), vehicle: saline
[5] = endpoint: survival time, mean or median, dose: 8.0 mg/kg/injection, schedule: Q01DX010 (ip), vehicle: saline
[6] = endpoint: survival time, mean or median, dose: 16.0 mg/kg/injection, schedule: Q01DX010 (ip), vehicle: saline
[7] = endpoint: survival time, mean or median, dose: 64.0 mg/kg/injection, schedule: Q01DX010 (ip), vehicle: saline
[8] = endpoint: survival time, mean or median, dose: 20.0 mg/kg/injection, schedule: Q01DX010 (ip), vehicle: saline

CC[n+]1c(-c2ccccc2)c2cc(N)ccc2c2ccc(N)cc21
T/C (endpoint: survival time, mean or median, dose: 0.12 mg/kg/injection, schedule: Q01DX015 (ip), vehicle: saline): 105 % of control | T/C (endpoint: survival time, mean or median, dose: 0.25 mg/kg/injection, schedule: Q01DX015 (ip), vehicle: saline): 109 % of control | T/C (endpoint: survival time, mean or median, dose: 0.5 mg/kg/injection, schedule: Q01DX015 (ip), vehicle: saline): 120 % of control | T/C (endpoint: survival time, mean or median, dose: 1.0 mg/kg/injection, schedule: Q01DX015 (ip), vehicle: saline): 117 % of control | T/C (endpoint: survival time, mean or median, dose: 2.0 mg/kg/injection, schedule: Q01DX015 (ip), vehicle: saline): 208 % of control | T/C (endpoint: survival time, mean or median, dose: 5.0 mg/kg/injection, schedule: Q01DX015 (ip), vehicle: saline): 163 % of control | T/C (endpoint: survival time, mean or median, dose: 10.0 mg/kg/injection, schedule: Q01DX015 (ip), vehicle: saline): 87 % of control

Cc1c2oc3c(C)ccc(C(=O)NC4C(=O)NC(C(C)C)C(=O)N5CCCC5C(=O)N(C)CC(=O)N(C)C(C(C)C)C(=O)OC4C)c3nc-2c(C(=O)NC2C(=O)NC(C(C)C)C(=O)N3CCC3C(=O)N(C)CC(=O)N(C)C(C(C)C)C(=O)OC2C)c(N)c1=O (stereo not drawn) (I: TV[Aze][Sar][NMeV] / II: TVP[Sar][NMeV]; ester I:1-I:C, II:1-II:C; linker I:N-II:N via Actinocin(1to9); configuration not given here)
T/C (endpoint: median survival time, dose: 450.0 micrograms/kg/injection, schedule: Q01DX001 (ip), vehicle: saline + alcohol): 116 % of control | T/C (endpoint: median survival time, dose: 750.0 micrograms/kg/injection, schedule: Q01DX001 (ip), vehicle: saline + alcohol): 118 % of control | T/C (endpoint: median survival time, dose: 750.0 micrograms/kg/injection, schedule: Q04DX003 (ip), vehicle: saline + alcohol): 96 % of control | T/C (endpoint: median survival time, dose: 1250.0 micrograms/kg/injection, schedule: Q04DX003 (ip), vehicle: saline + alcohol): 93 % of control | T/C (endpoint: median survival time, dose: 2080.0 micrograms/kg/injection, schedule: Q01DX001 (ip), vehicle: saline + alcohol): 86 % of control

CCCSc1ncnc2nc[nH]c12
T/C [1]: 100 % of control and 111 % of control | T/C [2]: 111 % of control | T/C [3]: 111 % of control and 122 % of control

O=C1CCC(N2C(=O)c3ccccc3C2=O)C(=O)N1 (stereo not drawn)
T/C [1]: 104 % of control | T/C [2]: 100 % of control | T/C [3]: 96 % of control | T/C [4]: 96 % of control

O=c1cnn(C2OC(CO)C(O)C2O)c(=O)[nH]1 (stereo not drawn)
T/C (endpoint: survival time, mean or median, dose: 800.0 mg/kg/injection, schedule: Q01DX010 (ip), vehicle: saline): 111 % of control | T/C (endpoint: survival time, mean or median, dose: 1600.0 mg/kg/injection, schedule: Q01DX010 (ip), vehicle: saline): 100 % of control

OCC1OC(n2cnc3c(Cl)ncnc32)C(O)C1O (stereo not drawn)
T/C [2]: 104 % of control and 108 % of control | T/C [3]: 100 % of control and 104 % of control | T/C [4]: 91 % of control and 100 % of control | T/C (endpoint: survival time, mean or median, dose: 500.0 mg/kg/injection, schedule: Q01DX010 (ip), vehicle: saline): 95 % of control

N[C@@H](Cc1ccc(N(CCCl)CCCl)cc1)C(=O)O
T/C (endpoint: survival time, mean or median, dose: 1.0 mg/kg/injection, schedule: Q01DX015 (ip), vehicle: carboxymethylcellulose (CMC)): 231 % of control | T/C (endpoint: survival time, mean or median, dose: 2.0 mg/kg/injection, schedule: Q01DX015 (ip), vehicle: carboxymethylcellulose (CMC)): 257 % of control | T/C (endpoint: survival time, mean or median, dose: 4.0 mg/kg/injection, schedule: Q01DX015 (ip), vehicle: carboxymethylcellulose (CMC)): 182 % of control and 195 % of control | T/C (endpoint: survival time, mean or median, dose: 8.0 mg/kg/injection, schedule: Q01DX015 (ip), vehicle: carboxymethylcellulose (CMC)): 103 % of control

c1ccc(CNc2ncnc3[nH]ncc23)cc1
T/C [5]: 100 % of control and 109 % of control | T/C [6]: 100 % of control | T/C (endpoint: survival time, mean or median, dose: 32.0 mg/kg/injection, schedule: Q01DX010 (ip), vehicle: saline): 109 % of control | T/C [7]: 95 % of control and 109 % of control

OCC1OC(n2cnc3c(=S)nc[nH]c32)C(O)C1O (stereo not drawn)
T/C [8]: 104 % of control and 116 % of control | T/C (endpoint: survival time, mean or median, dose: 40.0 mg/kg/injection, schedule: Q01DX010 (ip), vehicle: saline): 91 % of control and 108 % of control | T/C (endpoint: survival time, mean or median, dose: 80.0 mg/kg/injection, schedule: Q01DX010 (ip), vehicle: saline): 95 % of control and 116 % of control

CN(C)CC(=O)c1ccc(O)c(O)c1
T/C (endpoint: survival time, mean or median, dose: 200.0 mg/kg/injection, schedule: Q01DX010 (ip), vehicle: saline): 120 % of control | T/C (endpoint: survival time, mean or median, dose: 300.0 mg/kg/injection, schedule: Q01DX010 (ip), vehicle: saline): 100 % of control | T/C (endpoint: survival time, mean or median, dose: 450.0 mg/kg/injection, schedule: Q01DX010 (ip), vehicle: saline): 95 % of control

NC(=O)N(CCCl)N=O
T/C (endpoint: survival time, mean or median, dose: 0.5 mg/kg/injection, schedule: Q01DX010 (ip), vehicle: saline): 175 % of control | T/C (endpoint: survival time, mean or median, dose: 1.0 mg/kg/injection, schedule: Q01DX010 (ip), vehicle: saline): 210 % of control | T/C (endpoint: survival time, mean or median, dose: 2.0 mg/kg/injection, schedule: Q01DX010 (ip), vehicle: saline): 100 % of control | T/C (endpoint: survival time, mean or median, dose: 4.0 mg/kg/injection, schedule: Q01DX010 (ip), vehicle: saline): 105 % of control

CN=C(NC)c1ccc(NC(=O)Nc2ccc(NC(=O)Nc3ccc(C(=NC)NC)cc3)cc2)cc1
T/C (endpoint: survival time, mean or median, dose: 13.3 mg/kg/injection, schedule: Q01DX010 (ip), vehicle: saline): 108 % of control | T/C [8]: 112 % of control

Nc1nc(SCc2ccccc2)c2[nH]cnc2n1
T/C [5]: 100 % of control and 105 % of control | T/C [6]: 100 % of control and 111 % of control | T/C [7]: 100 % of control and 122 % of control

— PubChem BioAssay AID318 (DTP/NCI, 2004)
